# In ChEMBL document CHEMBL1154966, “Metabolic activation of N-thiazol-2-yl benzamide as glucokinase activators: Impacts of glutathione trapping on covalent binding” (Bioorg Med Chem Lett, 2010):
# Legend:
# Type in all cases: ADME, Microsome
# Liver microsomes [1] = assay: Metabolic stability in rat liver microsomes assessed as covalent binding at 10 uM after 1 hr by scintillation counting in absence of NADPH
# Liver microsomes [2] = assay: Metabolic stability in human liver microsomes assessed as covalent binding at 10 uM after 1 hr preincubated for 15 mins with NADPH by scintillation counting
# Liver microsomes [3] = assay: Metabolic stability in rat liver microsomes assessed as covalent binding at 10 uM after 1 hr by scintillation counting in presence of glutathione
# Liver microsomes [4] = assay: Metabolic stability in rat liver microsomes assessed as covalent binding at 10 uM after 1 hr preincubated for 15 mins with NADPH by scintillation counting
# Liver microsomes [5] = assay: Metabolic stability in human liver microsomes assessed as covalent binding at 10 uM after 1 hr by scintillation counting in absence of NADPH
smiles,measurement,setting,value
C[C@@H](CO)Oc1cc(Oc2ccc(S(C)(=O)=O)cc2)cc(C(=O)Nc2nccs2)c1,Stability,Liver microsomes [1],0 pmolequiv/mg
same,Stability,Liver microsomes [2],715 pmolequiv/mg
same,Stability,Liver microsomes [3],50 pmolequiv/mg
same,Stability,Liver microsomes [4],378 pmolequiv/mg
same,Stability,Liver microsomes [5],10 pmolequiv/mg
